Test results from US20250361209A1, “CRYSTAL FORMS OF N-(3-FLUOROPHENYL)-6-(6,7-DIMETHOXYQUINOLIN-4-OXY)-3,4-DIHYDROQUINOLINE-1(2H)-CARBOXAMIDE METHANESULFONATE AND PREPARATION METHOD THEREOF” (Shanghai Yi Feng Biotechnology Co., Ltd., priority 2023, published 2025).
Like-named read-outs stand apart in the source and are kept apart here. One block for each compound: values may come before it.

Columns and labels:
[1] = Test of influencing factors of crystalline forms A, B and C (total impurity); assay type: physicochemical; settings: methanesulfonate
Excerpt: Example 3 Test of Influencing Factors of Crystalline Forms A, B and C

[2] = Comparison of oral absorption of K-13 (free base) and its methanesulfonate, plasma concentration-time and PK; assay type: in vivo, BALB/c mice; settings: 10 mg · kg^−1 PO; for concentration at 8 h / concentration at 24 h / concentration at 0 h: 10 mg · kg^−1, BALB/c mice
Excerpt: Comparison of oral absorption of K-13 (free base) and its methanesulfonate (N-(3-fluorophenyl)-6-(6. 7-dimethoxyquinolin-4-oxy)-3.4-dihydroquinoline-1(2H)-carboxamide methanesulfonate)

[3] = High temperature (60° C.), 0 day
[4] = High temperature (60° C.), 5 days
[5] = High temperature (60° C.), 10 days
[6] = Illumination (5000 + 500 lux), 0 day
[7] = Illumination (5000 + 500 lux), 5 days
[8] = Illumination (5000 + 500 lux), 10 days
[9] = Illumination (5000 + 500 lux), 30 days
[10] = BALB/c mice, analyte K-13-1, methanesulfonate

Total impurity % ([1]; High humidity (RH75%), 0 day): 0.91%
Total impurity % ([1]; High humidity (RH75%), 5 days): 0.92%
Total impurity % ([1]; High humidity (RH75%), 10 days): 0.99%
Total impurity % ([1]; High humidity (RH75%), 30 days): 1.25%
Total impurity % [1, 3]: 0.91%
Total impurity % [1, 4]: 4.50%
Total impurity % [1, 5]: 6.96%
Total impurity % [1, 6]: 0.91%
Total impurity % [1, 7]: 1.89%
Total impurity % [1, 8]: 3.70%
Total impurity % [1, 9]: 4.21%
Structure (SMILES): COc1cc2nccc(Oc3ccc4c(c3)CCCN4C(=O)Nc3cccc(F)c3)c2cc1OC [Crystalline form A, N-(3-fluorophenyl)-6-(6,7-dimethoxyquinolin-4-oxy)-3,4-dihydroquinoline-1(2H)-carboxamide methanesulfonate]

Total impurity % ([1]; High humidity (RH75%), 0 day): 0.86%
Total impurity % ([1]; High humidity (RH75%), 5 days): 1.03%
Total impurity % ([1]; High humidity (RH75%), 10 days): 1.09%
Total impurity % ([1]; High humidity (RH75%), 30 days): 1.12%
Total impurity % [1, 3]: 0.86%
Total impurity % [1, 4]: 1.00%
Total impurity % [1, 5]: 0.98%
Total impurity % [1, 6]: 0.86%
Total impurity % [1, 7]: 0.94%
Total impurity % [1, 8]: 1.12%
Total impurity % [1, 9]: 1.33%
Structure (SMILES): COc1cc2nccc(Oc3ccc4c(c3)CCCN4C(=O)Nc3cccc(F)c3)c2cc1OC [Crystalline form B, N-(3-fluorophenyl)-6-(6,7-dimethoxyquinolin-4-oxy)-3,4-dihydroquinoline-1(2H)-carboxamide methanesulfonate]

plasma Concentration of K-13-1, PO-1 ([2]; BALB/c mice, 0.083 h, animal PO-1): 29.6 ng/mL
plasma Concentration of K-13-1, PO-2 ([2]; BALB/c mice, 0.083 h, animal PO-2): 46.6 ng/mL
plasma Concentration of K-13-1, Mean ([2]; BALB/c mice, 0.083 h, mean): 38.1 ng/mL
plasma Concentration of K-13-1, PO-1 ([2]; BALB/c mice, 0.25 h, animal PO-1): 186 ng/mL
plasma Concentration of K-13-1, PO-2 ([2]; BALB/c mice, 0.25 h, animal PO-2): 215 ng/mL
plasma Concentration of K-13-1, Mean ([2]; BALB/c mice, 0.25 h, mean): 201 ng/mL
plasma Concentration of K-13-1, PO-1 ([2]; BALB/c mice, 0.5 h, animal PO-1): 480 ng/mL
plasma Concentration of K-13-1, PO-2 ([2]; BALB/c mice, 0.5 h, animal PO-2): 865 ng/mL
plasma Concentration of K-13-1, Mean ([2]; BALB/c mice, 0.5 h, mean): 673 ng/mL
plasma Concentration of K-13-1, PO-1 ([2]; BALB/c mice, 1 h, animal PO-1): 551 ng/mL
plasma Concentration of K-13-1, PO-2 ([2]; BALB/c mice, 1 h, animal PO-2): 420 ng/mL
plasma Concentration of K-13-1, Mean ([2]; BALB/c mice, 1 h, mean): 485 ng/mL
plasma Concentration of K-13-1, PO-1 ([2]; BALB/c mice, 2 h, animal PO-1): 136 ng/mL
plasma Concentration of K-13-1, PO-2 ([2]; BALB/c mice, 2 h, animal PO-2): 485 ng/mL
plasma Concentration of K-13-1, Mean ([2]; BALB/c mice, 2 h, mean): 311 ng/mL
plasma Concentration of K-13-1, PO-1 ([2]; BALB/c mice, 4 h, animal PO-1): 220 ng/mL
plasma Concentration of K-13-1, PO-2 ([2]; BALB/c mice, 4 h, animal PO-2): 395 ng/mL
plasma Concentration of K-13-1, Mean ([2]; BALB/c mice, 4 h, mean): 308 ng/mL
plasma Concentration of K-13-1, PO-1 ([2]; BALB/c mice, 24 h, animal PO-1): BLOQ
AUC0-inf ([2]; BALB/c mice, analyte K-13-1): 2894 ng·h/mL
AUC0-t ([2]; BALB/c mice, analyte K-13-1): 2870 ng·h/mL
Cmax ([2]; BALB/c mice, analyte K-13-1): 673 ng/mL
Kel ([2]; BALB/c mice, analyte K-13-1): 0.200 h⁻¹
F (oral bioavailability) ([2]; BALB/c mice, analyte K-13-1, listed as free base): 20%
concentration at 8 h ([2]; BALB/c, mouse, plasma, po, 8 h, animal PO-1, read-out: plasma Concentration of K-13-1, PO-1): 97.2 ng/mL
concentration at 8 h ([2]; BALB/c, mouse, plasma, po, 8 h, animal PO-2, read-out: plasma Concentration of K-13-1, PO-2): 58.8 ng/mL
concentration at 8 h ([2]; BALB/c, mouse, plasma, po, 8 h, mean, read-out: plasma Concentration of K-13-1, Mean): 78 ng/mL
concentration at 24 h ([2]; BALB/c, mouse, plasma, po, 24 h, animal PO-2, read-out: plasma Concentration of K-13-1, PO-2): 4.65 ng/mL
concentration at 24 h ([2]; BALB/c, mouse, plasma, po, 24 h, mean, read-out: plasma Concentration of K-13-1, Mean): 4.65 ng/mL
half-life ([2]; BALB/c, mouse, plasma, po, 10 mg/kg, BALB/c mice, analyte K-13-1): 3.5 h
Tmax ([2]; BALB/c, mouse, plasma, po, 10 mg/kg, BALB/c mice, analyte K-13-1, read-out: Tmax): 0.5 h
Structure (SMILES): COc1cc2nccc(Oc3ccc4c(c3)CCCN4C(=O)Nc3cccc(F)c3)c2cc1OC [K-13-1, N-(3-fluorophenyl)-6-(6,7-dimethoxyquinolin-4-oxy)-3,4-dihydroquinoline-1(2H)-carboxamide]

increase of in vivo exposure AUClast versus free base ([2]; BALB/c mice): 2.46 times
increase of in vivo exposure Cmax versus free base ([2]; BALB/c mice): 3.14 times
plasma Concentration of K-13-1, PO-1 ([2]; BALB/c mice, 0.083 h, animal PO-1, methanesulfonate): 431 ng/mL
plasma Concentration of K-13-1, PO-2 ([2]; BALB/c mice, 0.083 h, animal PO-2, methanesulfonate): 414 ng/mL
plasma Concentration of K-13-1, Mean ([2]; BALB/c mice, 0.083 h, mean, methanesulfonate): 423 ng/mL
plasma Concentration of K-13-1, PO-1 ([2]; BALB/c mice, 0.25 h, animal PO-1, methanesulfonate): 2175 ng/mL
plasma Concentration of K-13-1, PO-2 ([2]; BALB/c mice, 0.25 h, animal PO-2, methanesulfonate): 2059 ng/mL
plasma Concentration of K-13-1, Mean ([2]; BALB/c mice, 0.25 h, mean, methanesulfonate): 2117 ng/mL
plasma Concentration of K-13-1, PO-1 ([2]; BALB/c mice, 0.5 h, animal PO-1, methanesulfonate): 1868 ng/mL
plasma Concentration of K-13-1, PO-2 ([2]; BALB/c mice, 0.5 h, animal PO-2, methanesulfonate): 1775 ng/mL
plasma Concentration of K-13-1, Mean ([2]; BALB/c mice, 0.5 h, mean, methanesulfonate): 1822 ng/mL
plasma Concentration of K-13-1, PO-1 ([2]; BALB/c mice, 1 h, animal PO-1, methanesulfonate): 1824 ng/mL
plasma Concentration of K-13-1, PO-2 ([2]; BALB/c mice, 1 h, animal PO-2, methanesulfonate): 1317 ng/mL
plasma Concentration of K-13-1, Mean ([2]; BALB/c mice, 1 h, mean, methanesulfonate): 1571 ng/mL
plasma Concentration of K-13-1, PO-1 ([2]; BALB/c mice, 2 h, animal PO-1, methanesulfonate): 922 ng/mL
plasma Concentration of K-13-1, PO-2 ([2]; BALB/c mice, 2 h, animal PO-2, methanesulfonate): 1319 ng/mL
plasma Concentration of K-13-1, Mean ([2]; BALB/c mice, 2 h, mean, methanesulfonate): 1121 ng/mL
plasma Concentration of K-13-1, PO-1 ([2]; BALB/c mice, 4 h, animal PO-1, methanesulfonate): 884 ng/mL
plasma Concentration of K-13-1, PO-2 ([2]; BALB/c mice, 4 h, animal PO-2, methanesulfonate): 981 ng/mL
plasma Concentration of K-13-1, Mean ([2]; BALB/c mice, 4 h, mean, methanesulfonate): 932 ng/mL
plasma Concentration of K-13-1, PO-1 ([2]; BALB/c mice, 8 h, animal PO-1, methanesulfonate): 130 ng/mL
plasma Concentration of K-13-1, PO-2 ([2]; BALB/c mice, 8 h, animal PO-2, methanesulfonate): 89.0 ng/mL
plasma Concentration of K-13-1, Mean ([2]; BALB/c mice, 8 h, mean, methanesulfonate): 109 ng/mL
plasma Concentration of K-13-1, PO-2 ([2]; BALB/c mice, 24 h, animal PO-2, methanesulfonate): BLOQ
plasma Concentration of K-13-1, Mean ([2]; BALB/c mice, 24 h, mean, methanesulfonate): BLOQ
AUC0-inf [2, 10]: 7350 ng·h/mL
AUC0-t [2, 10]: 7051 ng·h/mL
Cmax [2, 10]: 2117 ng/mL
F (oral bioavailability) [2, 10]: 50%
Kel [2, 10]: 0.364 h⁻¹
T1/2 [2, 10]: 1.9 h
Tmax [2, 10]: 0.25 h
concentration at 0 h ([2]; BALB/c, mouse, plasma, po, animal PO-1, read-out: plasma Concentration of K-13-1, PO-1): 0 ng/mL
concentration at 0 h ([2]; BALB/c, mouse, plasma, po, animal PO-2, read-out: plasma Concentration of K-13-1, PO-2): 0 ng/mL
concentration at 0 h ([2]; BALB/c, mouse, plasma, po, mean, read-out: plasma Concentration of K-13-1, Mean): 0 ng/mL
Structure (SMILES): COc1cc2nccc(Oc3ccc4c(c3)CCCN4C(=O)Nc3cccc(F)c3)c2cc1OC [K-13-MS-1, N-(3-fluorophenyl)-6-(6,7-dimethoxyquinolin-4-oxy)-3,4-dihydroquinoline-1(2H)-carboxamide methanesulfonate]
